Data as given in article PMC6424980, “Distinct G protein-coupled receptor phosphorylation motifs modulate arrestin affinity and activation and global conformation” (Nature Communications, 2019).
“Also recorded” adds a separate entry of the source.

Tests used:
arrestin-1 (F85A, F197A) = test: Limited trypsin digestion of arrestin-1 in presence of peptide; type: biochemical, bovine; conditions: arrestin:peptide 1:1.2, 35 °C, SDS PAGE
Excerpt: (§1) Synthesized cDNAs of bovine arrestin-1, human arrestin-2 and human arrestin-3 were ordered from Genewiz, amplified by PCR and cloned (Supplementary Information Table 5) into the pET-15b vector (Novagen), using the Gibson Assembly protocol. The constructs contained an N-terminal hexa histidine tag linked by a linker that contained a Tobacco Etch Virus cleavage site (TEV; […]). PCR was used to introduce the monomerizing arrestin-1 mutations (F85A, F197A)[58]. Note that this mutant was employed for fluorescence anisotropy, trypsin digestion, and NMR experiments. Wild-type arrestin-2 and -3 were used for fluorescence anisotropy and trypsin digestion experiments. […] The arrestin-1 in this construct had the wild-type sequence. Note that this construct differs slightly from that previously published[59],[60] and was optimized for purification. We verified the functionality of this fusion construct using the standard centrifugal pull-down assay using phosphorylated rhodopsin in native ROS membranes.
Arrestin (60 µg) was mixed at a 1 to 1.2 molar ratio with peptide and preincubated at RT for 5 min before 1 μl of 0.15 mg/ml trypsin stock was added. The enzymatic digestion was carried out at 35 °C (20 mM Bis-Tris propane pH 7.0, 150 mM NaCl, 10 mM 2‑Mercaptoethanol and 2 mM EDTA). At certain time points (5, 15, 30, 60, 90 min), 5 μl aliquots were quenched with heat incubation in the presence of 20 μl SDS loading buffer (95 °C, 5 min) and then subjected to SDS PAGE. Bands were visualized with InstantBlue (Expedeon).

arrestin-2 = test: Fluorescence anisotropy binding of fluorescein-labelled peptides to arrestin-2; parameters: species or system human
Excerpt: as §1
0.1–0.2 mg of lyophilized peptide was dissolved in 50 µl of 50 mM phosphate-buffered saline (PBS) buffer at pH 7.0, and then two molar equivalents of fluorescein-5-maleimide dye stock dissolved in dimethylsulfoxid was added. The reaction was carried out at RT in the dark. […] It was dissolved in 50 µl of 20 mM Bis-Tris propane pH 7.0 and 150 mM NaCl and its concentration was determined by absorbance. […]

[1] = system: arrestin-1 mutants I72B and F197NBD with nonphosphorylated light-activated rhodopsin in ROS membranes; test: Ternary complex formation (site-directed fluorescence and centrifugal pull-down); type: biochemical, bovine; conditions: 10 µM rhodopsin in ROS, 1 µM arrestin-1 I72B or F197NBD, 100 µM peptide, pH 7
Excerpt: Recombinant bovine arrestin-1 cloned into the pET15b vector was expressed and purified as described. The basic construct was a modified wild-type sequence that contained no native cysteines (C63A, C128S and C143A) nor tryptophans (W194F). Single cysteine residues were introduced by PCR at sites 72 or 197 as previously described. The I72C mutant was labeled with monobromobimane (Thermo Fisher) and is referred to as I72B. The F197C mutant was labeled with N,N′-Dimethyl-N-(Iodoacetyl)-N′-(7-Nitrobenz-2-Oxa-1,3-Diazol-4-yl)Ethylenediamine (IANBD amide, Thermo Fisher) and is referred to as F197NBD. Labeling was carried out as previously described[43],[61]. Both labeled mutants were assessed to be functionally similar to wild-type arrestin-1 using the Extra Meta II assay, which determines the ability of arrestin-1 to bind and stabilize the active Meta II form of rhodopsin[64].
Under dim-red light, samples were prepared that contained nonphosphorylated rhodopsin (10 µM) in ROS membranes, 1 µM arrestin-1 I72B or F197NBD, ±100 µM peptide in 50 mM HEPES, 130 mM NaCl, pH 7 (150 or 200 µl sample volume). One hundred microliters of the sample was used for fluorescence measurements, and the remainder was used for the centrifugal pull-down assay (50 µl per assay). Steady-state fluorescence measurements were performed using a SPEX Fluorolog (1680) instrument in front-face mode. Bimane fluorescence was recorded using an excitation wavelength of 400 nm and emission 424–600 nm, and NBD fluorescence was recorded using an excitation wavelength of 500 nm and emission 524–660 (2 nm step size, 0.5 s integration per point). Excitation slits were narrowed to 0.1−0.2 nm to minimize light-activation of rhodopsin, and emission slits were set at 4 nm. Pull-down analysis was performed by centrifuging samples at 16,000 × g for 10 min at 20 °C. Selected samples were light activated (>495 nm) for 15 s prior to centrifugation (appr. 60 s delay time). Following centrifugation, the supernatants were removed, and the pellets were solubilized in loading buffer containing 2% SDS and subjected to SDS PAGE. Bands were visualized using Coomassie Brilliant Blue.

## CDDEASTTVSKTETSQVAPA [5P, multiply phosphorylated rhodopsin C-terminus peptide lacking key site pS343]
arrestin-1 (F85A, F197A)
  limited trypsin digest pattern of arrestin-1 (conformational change, C-tail displacement): inability to induce conformational changes
arrestin-2
  binding to arrestin-2 (in words): bound well
[1]
  ternary complex formation (arrestin-1, nonphosphorylated rhodopsin, peptide): significant reduction of ternary complex formation; also recorded: could still stimulate ternary complex formation
